# Key:
# [1] = Continuous stirred tank reactor (CSTR) styrene polymerisation inhibition; settings: CSTR 110° C., inhibitor 75 ppm; for Polymer level at steady state: nitrogen sparging
# Protocol: The evaluation of the efficacy of a selection of nitroxide compounds of the invention was carried out using a continuous stirred tank reactor (CSTR) which mimicked the re-boiler of a styrene distillation column. […] Data gathered after this point was averaged to give the steady state polymer level. Nitrogen sparging to remove oxygen gas was carried out at a measured rate of 200 ml/minute. Apart from the inhibitors, the only variable was the inherent variation in the rate of thermal initiation of styrene polymerisation.
# [2] = Tube polymerisation inhibition, acrylonitrile monomer; settings: 120° C. for 7 days, air not removed, inhibitor 10 ppm
# Protocol: (§1) The efficacy of various inhibitors was evaluated with respect to the monomers vinyl acetate, acrylonitrile, 2-ethylhexyl acrylate and isoprene. The efficacy of each inhibitor was determined by heating in pure monomer or a solution of monomer in a suitable solvent(s) for a set time and at a known temperature. The storage inhibitor was removed from each monomer by distillation or treatment with neutral silica. In each of the tables below, the amount of polymer generated is expressed as % w/w of the monomer.
# Similarly, tubes containing acrylonitrile and various inhibitors were heated at 120° C. for 7 days. The air was not removed from these solutions prior to heating.
# [3] = Tube polymerisation inhibition, isoprene monomer; settings: 100 ppm inhibitor, 160° C. for 1 hr
# Protocol: as §1
# Similarly tubes containing 100 ppm inhibitor in a solution of Isoprene in dimethylformamide containing 1 or 3% furfural were heated at 160° C. for 1 hr. […] The results are expressed as ppm insoluble polymer.
# [4] = Tube inhibition time, 2-ethylhexyl acrylate monomer; settings: 145° C., 5 ppm inhibitor, time to appearance of insoluble polymer
# Protocol: as §1
# Similarly, tubes containing 5 ppm inhibitor in 2-ethylhexyl acrylate were heated at 145° C. and the results expressed as inhibition time (i.e. the time to appearance of insoluble polymer). Data were generated in nitrogen and in the presence of air.
# [5] = Sealed-tube polymerisation inhibition, vinyl acetate monomer; settings: degassed with nitrogen, 160° C. for 48 hours, inhibitor 25 ppm
# Protocol: as §1
# In this case, the tubes and solution were degassed with nitrogen prior to sealing and heating at 160° C. for 48 hours.
# [6] = Solubility in water and toluene (saturated solutions, amount dissolved)
# [7] = Solubility of inhibitors/retarders in styrene with and without 4-butoxy-TEMPO; settings: in 4-butoxy-TEMPO plus styrene, 20° C.
# Protocol: Saturated solutions of the inhibitors/retarders phenothiazine and 4-methoxyphenol were prepared in 4-butoxy-TEMPO. These saturated solutions were then added to styrene so that the concentration of each inhibitor/retarder was above the solubility limit for that material in styrene alone.
molecule,measurement,setting,value
"2,2,6,6-tetramethylpiperidine-1-oxide [TEMPO]",Polymer level at steady state,[1],213 ppm
"4-butoxy-2,2,6,6-tetramethylpiperidine-1-oxide [4-butoxy-TEMPO]",Polymer,[2],0.06 % w/w
same,"Insoluble polymer, 1% Furfural",[3]; isoprene in dimethylformamide with 1% furfural,2.2 ppm
same,"Insoluble polymer, 3% Furfural",[3]; isoprene in dimethylformamide with 3% furfural,5.3 ppm
same,Inhibition time in air,[4]; air,40 min
same,Inhibition time in nitrogen,[4]; nitrogen,350 min
same,Polymer level at steady state,[1],341 ppm
same,Polymer,[5],19 % w/w
"4-hydroxy-2,2,6,6-tetramethylpiperidine-1-oxide [4-hydroxy-TEMPO]",Polymer,[2],0.18 % w/w
same,Polymer level at steady state,[1],180 ppm
"4-oxo-2,2,6,6-tetramethylpiperidine-1-oxide [4-oxo-TEMPO]",Solubility in toluene,[6]; saturated solution in toluene,>80 % wt/wt
same,Solubility in water,[6]; saturated solution in water,22.5 % wt/wt
C=CCOC1CC(C)(C)N([O])C(C)(C)C1 [4-allyloxy-TEMPO],Polymer level (at 120 mins),[1]; at 120 mins (not steady state),15199 (at 120 mins) ppm
COC1CC(C)(C)N([O])C(C)(C)C1 [4-methoxy-TEMPO],Polymer level at steady state,[1],172 ppm
"c1ccc2c(c1)Nc1ccccc1S2 [Phenothiazine, phenothiazine]","Soluble amount, Wt % test material (with respect to styrene)",[7],7.0 Wt %
same,Polymer,[5],35 % w/w

# Source: US20100168434A1, “INHIBITION OF POLYMERISATION” (priority 2005, published 2010)
